According to patent US10221392B2, “Generation of pancreatic endoderm from pluripotent stem cells using small molecules” (Novo Nordisk A/S, priority 2012, dated 2019):

Tests used:
Type in all cases: cell-based, human
[1] = tested on: NKX6.1/PDX1 double positive cells; assay: Candidate based PE screen 1 (compounds in basal medium without bFGF, first eight days); settings: compared to benchmark protocol (Ameri et al, 2010); hiPSC and hESC; FIG. 5
Protocol: Pluripotent stem (PS) cells were differentiated into definitive endoderm according to DE protocol (See general methods) and seeded in 96 well plates for screening. The pancreatic endoderm screen was divided into two parts. In screen 1, compounds were added to a basal medium (RPMI1640+0.1% PEST+12% KOSR) the first eight days of PE differentiation. Compounds were tested in 4 different time windows having 2 day increments and then cells were left to continue differentiation for another six days in the bFGF based published protocol (Ameri et al., 2010). In screen 2, cells were first differentiated for 4 days with the hit compounds from screen 1, then screening compounds were added the last 10 days to basal medium.
Human embryonic stem (hES) cells line SA121 and human induced pluripotent stem cells (hiPSC) chIPS4 (Cellectis) were grown in DEF-CS culture media (Cellectis) in T75 culture flasks. […]
Imaging was performed using the InCell Analyzer 2000 (GE Healthcare). […] The total cell number based in the DAPI counterstaining and the number of NKX6.1/PDX1 double positive cells was determined using InCell Developer Toolbox 1.8 (GE Healthcare). The fraction of NKX6.1/PDX1 double positive cells was normalized to the benchmark on each plate and the % effect was calculated. […]

[2] = tested on: NKX6.1/PDX1 double positive cells; assay: NKX6.1/PDX1 library screen, early phase (compounds on top of bFGF based PE media, first seven days); settings: concentration at which the fraction of NKX6.1/PDX1 double positive cells was enhanced more than 200% compared the PE media
Protocol: Human embryonic stem (hES) cells line SA121 and human induced pluripotent stem cells (hiPSC) chIPS4 (Cellectis) were grown in DEF-CS culture media (Cellectis) in T75 culture flasks.
After 24 hours the cells were washed with RPMI1640 and treated with 100 ng/ml Activin A (Peprotech #120-14E) in RPMI1640. […] Cells were maintained at 37° C. and 5% CO2 in a humidified incubator during the differentiation.
The DE cells were seeded at 200 000/cm^2 in 96 well optical plates (BD Bioscience), and PE differentiation using screening compounds was initiated the following day.
Cells were washed three times with PBS. […] Cells were washed five times and left in 200 μL PBS for imaging.
Imaging was performed using the InCell Analyzer 2000 (GE Healthcare). 4 fields per well with 10× objective were captured. The total cell number based in the DAPI counterstaining and the number of NKX6.1/PDX1 double positive cells was determined using InCell Developer Toolbox 1.8 (GE Healthcare). The fraction of NKX6.1/PDX1 double positive cells was normalized to the benchmark on each plate and the % effect was calculated. Values above 200% effect were categorized as hits.
The compounds within the bioactive library were tested at 1 uM and 0.1 uM. Compounds from the other libraries were tested at 10 uM and 1 uM. In a second candidate based screening approach, small molecules that target the main signalling pathways involved in pancreas development were included.
The library PE screening approach was divided into an early and a late phase (FIG. 1).
In the early phase, compounds were tested on top of the PE media for the first seven days of PE differentiation, and then the differentiation was continued for additional six days using PE media without compounds.
The screen was divided into an early and a late phase (FIG. 1). In the early phase, compounds were tested on top of the PE media for the first seven days of PE differentiation, and then continued for additional six days using PE media without compounds. In the late phase, DE cells were differentiated in the PE media for the first seven days. In the following six days compounds were tested on top of the PE media. Twelve positive control wells (PE media) and 12 negative control wells (PE media without bFGF) were included in each 96 well plate. Media change was performed daily.

[3] = tested on: NKX6.1/PDX1 double positive cells; assay: Candidate based PE screen 2 (after 4 days hit compound of screen 1, compounds in basal medium for last 10 days); settings: cells first exposed to hit compound from screen 1 for 4 days, compounds added for last 10 days; FIG. 5
Protocol: Pluripotent stem (PS) cells were differentiated into definitive endoderm according to DE protocol (See general methods) and seeded in 96 well plates for screening. The pancreatic endoderm screen was divided into two parts. In screen 1, compounds were added to a basal medium (RPMI1640+0.1% PEST+12% KOSR) the first eight days of PE differentiation. […] In screen 2, cells were first differentiated for 4 days with the hit compounds from screen 1, then screening compounds were added the last 10 days to basal medium.

Compound: c1ccc2c(-c3cnn4cc(-c5ccc(N6CCNCC6)cc5)cnc34)ccnc2c1 [LDN-193189]
- hit identification and most effective time window, candidate screen 1 [1]: most effective when added for the first 4 days followed by 4 days basal medium

Compound: O=c1cc(-c2cccc3c2Sc2ccccc2S3)oc(N2CCOCC2)c1 [ATM Kinase Inhibitor]
- hit concentration (Concentration) [2]: 10 µM

Compound: COc1ccc(-c2cnc3c(-c4ccsc4)cnn3c2)cc1 [VEGF Receptor 2 Kinase Inhibitor IV]
- hit concentration (Concentration) [2]: 10 µM

Compound: NC(=O)c1ccc2[nH]c(-c3ccc(Oc4ccc(Cl)cc4)cc3)nc2c1 [Chk2 Inhibitor II]
- hit concentration (Concentration) [2]: 10 µM

Compound: Fc1ccc(-c2nc3n(c2-c2ccncc2)CCS3)cc1 [SKF-86002]
- hit concentration (Concentration) [2]: 10 µM

Compound: Cc1ccc2nc(NC(=O)CSc3nc4c(c(=O)n3-c3ccccc3)SCC4)sc2c1 [IWP2]
- hit identification, candidate screen 2 [3]: hit compounds

Compound: CC1=C2C[C@H]3[C@@H](CC=C4C[C@@H](O)CC[C@@]43C)[C@@H]2CC[C@]12O[C@@H]1C[C@H](C)CN[C@H]1[C@H]2C [Cyclopamine]
- hit identification, candidate screen 2 [3]: hit compounds
